# Assay: Solubility of the dye
# Format: physicochemical
smiles,measurement,value
"Cc1ccc(Nc2ccc3c4c(cc(=O)n3C)-c3ccccc3C(=O)c24)c(S(=O)(=O)[O-])c1.[Na+] [Acid Red 80, C. I. Acid Red 80]",solubility compared with Acid Red 82,less than that of Acid Red 82
